Source: patent EP4772162A1, “COMPOSITION FOR IMPROVING SKIN CONDITION COMPRISING PEPTIDE AS ACTIVE INGREDIENT” (Caregen Co., Ltd., priority 2023, dated 2025)
Peptide text beside a SMILES is read from it.

Columns and labels:
[1] = tested on: collagen Iα1 (Collagen, type I, alpha 1) gene; test: mRNA expression of extracellular matrix component genes (RT-PCR); assay type: cell-based, mouse; settings: NIH3T3 cells; peptide at 10 µM, 50 µM, and 100 µM; 24 hours; FIG. 1
Procedure: (§1) The effect of the peptide prepared in Preparation Example 1 on expression of extracellular matrix (ECM) components was evaluated by measuring mRNA expression levels of the genes of the respective components.
(§2) NIH3T3 cells (a mouse fibroblast cell line) were seeded in a 6-well plate at a density of 3 x 10^5 cells/well and cultured for 24 hours. The cultured cells were washed once with serum-free DMEM. The peptide prepared in Preparation Example 1 was mixed into serum-free DMEM at each concentration to prepare medium solutions containing the peptide at 10 µM, 50 µM, and 100 µM, and the medium solutions were added to the cells. The cells were cultured for 24 hours in a CO2 incubator at 37°C and washed twice with PBS, and then RNA was isolated using easy blue (iNtRON, Cat. No.: 17061, Korea). The amount of RNA was quantified, 1,000 ng of RNA was added per tube, and then cDNA synthesis was performed using an RT kit (enzynomics, Cat. No.: RT200, Korea). Thereafter, PCR was performed using a PCR kit (enzynomics, Cat. No.: P581T, Korea), with collagen Iα1, fibronectin, or elastin gene as a detection target.

elastin gene [2] = test: as above; assay type: cell-based, mouse; settings: NIH3T3 cells; peptide at 10 µM, 50 µM, and 100 µM; 24 hours; FIG. 1
Procedure: as §1, §2

fibronectin gene [3] = test: as above; assay type: cell-based, mouse; settings: NIH3T3 cells; peptide at 10 µM, 50 µM, and 100 µM; 24 hours; FIG. 1
Procedure: as §1, §2

AQP3 (Aquaporin 3) gene = test: mRNA expression of skin barrier-related genes (RT-PCR); assay type: cell-based, human; settings: HaCaT cells; peptide at 10 µM, 50 µM, and 100 µM; 24 hours; FIG. 2
Procedure: (§3) The effect of the peptide prepared in Preparation Example 1 on expression of genes related to a skin barrier was evaluated.
as §2, with “HaCaT” for “NIH3T3”, “human keratinocyte” for “mouse fibroblast”, “SIRT1 (Sirtuin 1)” for “collagen Iα1, fibronectin,”, “AQP3 (Aquaporin 3)” for “elastin”

SIRT1 (Sirtuin 1) gene = test: as above; assay type: cell-based, human; settings: HaCaT cells; peptide at 10 µM, 50 µM, and 100 µM; 24 hours; FIG. 2
Procedure: as §3
as §2, with “HaCaT” for “NIH3T3”, “human keratinocyte” for “mouse fibroblast”, “SIRT1 (Sirtuin 1)” for “collagen Iα1, fibronectin,”, “AQP3 (Aquaporin 3)” for “elastin”

[4] = tested on: reactive oxygen species (ROS) in NIH3T3 cells; test: Inhibition of UV-induced generation of reactive oxygen species (DCFH-DA, FACS); assay type: cell-based, mouse; settings: UVA at 6 J/cm^2, peptide at 10 µM, 50 µM, and 100 µM, 24 hours after irradiation, FIG. 3A
Procedure: (§4) NIH3T3 cells (a mouse fibroblast cell line) and HaCaT cells (a human keratinocyte cell line) were seeded in a 6-well plate at a density of 5 x 10^5 cells/well and cultured for 24 hours. The cultured cells were washed once with serum-free DMEM. The peptide prepared in Preparation Example 1 was mixed into serum-free DMEM at each concentration to prepare medium solutions containing the peptide at 10 µM, 50 µM, and 100 µM, and the medium solutions were added to the cells. The cells to which the peptide was added were cultured for 1 hour in a CO2 incubator at 37°C. After the culture, the medium was removed from the cells, and PBS was added. Using a UV irradiator (VILBER LOURMAT, Cat. No.: 3102-BSU, France), NIH3T3 cells were irradiated with UVA at 6 J/cm^2, and HaCaT cells were irradiated with UVB at 15 mJ/cm^2. After PBS was removed, the above-described peptide-containing medium solutions at the respective concentrations were added again to the cells. The cells to which the peptide was added were cultured for 24 hours in a CO2 incubator at 37°C. After treatment with 10 µM DCFH-DA (2',7'-dichlorofluorescein diacetate), the cells were wrapped in foil and cultured for 30 minutes in a CO2 incubator at 37°C. Subsequently, the cells were washed twice with PBS and then collected, and fluorescence values were measured by FACS.

[5] = tested on: reactive oxygen species (ROS) in HaCaT cells; test: as above; assay type: cell-based, human; settings: UVB at 15 mJ/cm^2, peptide at 10 µM, 50 µM, and 100 µM, 24 hours after irradiation, FIG. 3B
Procedure: as §4

collagen Iα1 gene = test: Restoration of expression of extracellular matrix genes reduced by UV irradiation (RT-PCR); assay type: cell-based, mouse; settings: NIH3T3 cells; UVA at 6 J/cm^2; peptide at 10 µM, 50 µM, and 100 µM; 6 hours after irradiation; FIG. 4
Procedure: (§5) Whether the peptide of SEQ ID NO: 1 prepared in Preparation Example 1 restores expression levels of extracellular matrix genes reduced by UV irradiation was evaluated.
(§6) NIH3T3 cells (a mouse fibroblast cell line) were seeded in a 6-well plate at a density of 5 x 10^5 cells/well and cultured for 24 hours. The cultured cells were washed once with serum-free DMEM. The peptide prepared in Preparation Example 1 was mixed into serum-free DMEM at each concentration to prepare medium solutions containing the peptide at 10 µM, 50 µM, and 100 µM, and the medium solutions were added to the cells. The cells to which the peptide was added were cultured for 1 hour in a CO2 incubator at 37°C. After the cells were cultured, the medium was removed from the cells, and PBS was added. Using a UV irradiator (VILBER LOURMAT, Cat. No.: 3102-BSU, France), the cells were irradiated with UVA at 6 J/cm^2. After PBS was removed, the above-described peptide-containing medium solutions at the respective concentrations were added again to the cells. The cells to which the peptide was added were cultured for 6 hours in a CO2 incubator at 37°C. After the cells were washed twice with PBS, RNA was isolated using easy blue (iNtRON, Cat. No.: 17061, Korea). The amount of RNA was quantified, 1,000 ng of RNA was added per tube, and then cDNA synthesis was performed using an RT kit (enzynomics, Cat. No.: RT200, Korea). Subsequently, PCR was performed using a PCR kit (enzynomics, Cat. No.: P581T, Korea), with collagen Iα1, fibronectin, or elastin gene as a detection target.

elastin gene [6] = test: as above; assay type: cell-based, mouse; settings: NIH3T3 cells; UVA at 6 J/cm^2; peptide at 10 µM, 50 µM, and 100 µM; 6 hours after irradiation; FIG. 4
Procedure: as §5, §6

fibronectin gene [7] = test: as above; assay type: cell-based, mouse; settings: NIH3T3 cells; UVA at 6 J/cm^2; peptide at 10 µM, 50 µM, and 100 µM; 6 hours after irradiation; FIG. 4
Procedure: as §5, §6

AQP3 gene = test: Restoration of expression of skin barrier-related genes reduced by UV irradiation (RT-PCR); assay type: cell-based, human; settings: HaCaT cells; UVB at 20 mJ/cm^2; peptide at 10 µM, 50 µM, and 100 µM; 4 hours after irradiation; FIG. 5
Procedure: (§7) Whether the peptide of SEQ ID NO: 1 prepared in Preparation Example 1 restores expression levels of skin barrier-related genes reduced by UV irradiation was evaluated.
as §6, with “HaCaT cells” for “NIH3T3 cells”, “(a human keratinocyte” for “(a mouse fibroblast”, “with UVB” for “with UVA”, “at 20 mJ/cm^2.” for “at 6 J/cm^2.”, “for 4” for “for 6”, “Korea). […]” for “Korea). Subsequently, PCR was performed using a PCR kit (enzynomics, Cat. No.: P581T, Korea), with collagen Iα1, fibronectin, or elastin gene as a detection target.”

SIRT1 gene = test: as above; assay type: cell-based, human; settings: HaCaT cells; UVB at 20 mJ/cm^2; peptide at 10 µM, 50 µM, and 100 µM; 4 hours after irradiation; FIG. 5
Procedure: as §7
as §6, with “HaCaT cells” for “NIH3T3 cells”, “(a human keratinocyte” for “(a mouse fibroblast”, “with UVB” for “with UVA”, “at 20 mJ/cm^2.” for “at 6 J/cm^2.”, “for 4” for “for 6”, “Korea). […]” for “Korea). Subsequently, PCR was performed using a PCR kit (enzynomics, Cat. No.: P581T, Korea), with collagen Iα1, fibronectin, or elastin gene as a detection target.”

MMP-1 in NIH3T3 cells = test: Inhibition of UV-induced MMP-1 expression (Western blot); assay type: cell-based, mouse; settings: UVA at 6 J/cm^2, peptide at 10 µM, 50 µM, and 100 µM, 24 hours after irradiation, FIG. 6A
Procedure: (§8) The effect of the peptide of SEQ ID NO: 1 prepared in Preparation Example 1 on MMP-1 expression induced by UV was evaluated.
(§9) NIH3T3 cells (a mouse fibroblast cell line) and HaCaT cells (a human keratinocyte cell line) were seeded in a 6-well plate at a density of 5 x 10^5 cells/well and cultured for 24 hours. The cultured cells were washed once with serum-free DMEM. The peptide prepared in Preparation Example 1 was mixed into serum-free DMEM at each concentration to prepare medium solutions containing the peptide at 10 µM, 50 µM, and 100 µM, and the medium solutions were added to the cells. The cells to which the peptide was added were cultured for 1 hour in a CO2 incubator at 37°C. After the cells were cultured, the medium was removed from the cells, and PBS was added. Using a UV irradiator (VILBER LOURMAT, Cat. No.: 3102-BSU, France), NIH3T3 cells were irradiated with UVA at 6 J/cm^2, and HaCaT cells were irradiated with UVB at 15 mJ/cm^2. After PBS was removed, the above-described peptide-containing medium solutions at the respective concentrations were added again to the cells. The cells to which the peptide was added were cultured for 24 hours in a CO2 incubator at 37°C. […] After treatment with an ECL solution (GE Healthcare, Cat. No.: RPN2232, USA), expression levels were analyzed using an ImageQuant 800 instrument (Cytiva, Cat. No.: 29-3994-81, USA).

MMP-1 in HaCaT cells = test: as above; assay type: cell-based, human; settings: UVB at 15 mJ/cm^2, peptide at 10 µM, 50 µM, and 100 µM, 24 hours after irradiation, FIG. 6B
Procedure: as §8, §9

## CC(C)C[C@H](NC(=O)[C@H](CC(C)C)NC(=O)[C@@H](N)CCCNC(=N)N)C(=O)N[C@@H](CC(N)=O)C(=O)O [peptide of SEQ ID NO: 1, RLLN] (H-RLLN-OH)
[1]
  mRNA expression level of collagen Iα1 (Collagen, type I, alpha 1) gene: increased
Elastin gene [2]
  mRNA expression level of elastin gene: increased
Fibronectin gene [3]
  mRNA expression level of fibronectin gene: increased
AQP3 (Aquaporin 3) gene
  mRNA expression level of AQP3 (Aquaporin 3) gene: increased
SIRT1 (Sirtuin 1) gene
  mRNA expression level of SIRT1 (Sirtuin 1) gene: increased
[4]
  intracellular ROS levels increased by UV irradiation: reduced
[5]
  intracellular ROS levels increased by UV irradiation: reduced
Collagen Iα1 gene
  mRNA expression level of collagen Iα1 gene reduced by UV irradiation: increased again
Elastin gene [6]
  mRNA expression level of elastin gene reduced by UV irradiation: increased again
Fibronectin gene [7]
  mRNA expression level of fibronectin gene reduced by UV irradiation: increased again
AQP3 gene
  mRNA expression level of AQP3 gene reduced by UV irradiation: restored
SIRT1 gene
  mRNA expression level of SIRT1 gene reduced by UV irradiation: restored
MMP-1 in NIH3T3 cells
  increase in MMP-1 expression induced by UV irradiation: inhibited
MMP-1 in HaCaT cells
  increase in MMP-1 expression induced by UV irradiation: inhibited
